This is an account of results in patent US6955873B1, “Diagnosis and treatment system for reward deficiency syndrome (RDS) and related behaviors” (priority 1999, dated 2005).

The test system of assay [1] is over-eating patients. Conditions: 400 mcg vs placebo, cited from earlier work.
Assay [2] relates to obese subjects genotyped for the dopamine D2 receptor gene (DRD2). To be noted: 400 mcg of CrP/day, cited from earlier work.
Assay [3] deals with over-eating patients. To be noted: 200 and 400 mcg, compared with placebo; cited from earlier work.
In assay [4] the test system is patients following weight reduction. To be noted: after six months; cited from earlier work.
Assay [5] concerns obese subjects genotyped for the dopamine D2 receptor gene (DRD2). As to the kind of experiment: Chromium picolinate body composition response as a function of DRD2 Taq1 A1 genotype. The format is in vivo, human. From the text:
In order to resolve the issue of non-responders, the inventor decided to test the hypothesis that typing the obese patients by genotyping the DRD2 gene prior to treatment with CrP would result in a differential treatment outcome. […] One of us (KB) predicted carriers of the DRD2 A2 allele would retain the positive metabolic effects of P, but in contrast the DRD2 A1 carriers, because there is a proclivity to increased carbohydrate binging, would possibly mask the metabolic effects of CrP on weight loss and change in body fat attenuating any positive effects. One prophetic example as described earlier (see page 48):
The inventor genotyped 130 obese subjects for the dopamine D2 receptor gene (DRD2) utilizing standard PCR techniques. The subjects were assessed for scale weight and for percent body fat using dual energy X-ray absorptiometry (DEXAR). The subjects were divided into matched placebo and chromium picolinate (CrP) groups (400μg. per day). The sample was separated into two independent groups; those with either an A1/A1 or A1/A2 allele and those with only the A2/A2 allelic pattern. Each of these groups was tested separately for differences between placebo and treatment means for a variety of measures of weight change. These measures consisted of calculations of the percent of fat weight change; the change in fat weight; the change in body weight; the change in free mass, the percent change of fat weight; the body composition index; and the body weight change in kilograms.

Assay [6] relates to young obese women. Conditions: cited from earlier work.

Like-named read-outs stand apart in the source and are kept apart here.

On to Chromium Picolinate, for which, in assay [1] (p < 0.001), the “reduction in body fat” value is listed as “greater reduction in body fat (p < 0.001), significantly” and the weight lost result is “group, 400 mcg CrP group lost significantly more”. In assay [1] (p < 0.004), the body composition entry is listed as “improve body composition (p < 0.004)” and the body fat lost entry is “group, 400 mcg CrP group lost significantly more”. The “changes in fat weight, body weight, percent change in weight, body weight changes in kgms” value in assay [2] (A1/A2 and A1/A1 carriers, listed as CrP) is “non-”. Besides, in assay [2] (A2/A2 group), the “changes in fat weight, body weight, percent change in weight, body weight changes in kgms” value is reported as “changes in kgms were all significant in A2/A2 group,”. Moreover, the “changes in Body Mass composition indicies” value in assay [3] is 200 and 400 mcg of CrP brought about significant. Also, the “non-fat related weight loss” value in assay [4] was “lean body mass and avoided non-fat related weight”. Besides, in assay [5] (A2/A2, p<0.012), the “body weight change in kilograms, treatment vs placebo” value is given as “significant”. The “change in fat weight, treatment vs placebo” value in assay [5] (A2/A2, p<0.041) is given as “significant”. Moreover, in assay [5] (A2/A2, p<0.044), the “percent change in weight, treatment vs placebo” value is on record as “significant”. Moreover, the “responsiveness to the effects of CrP” value in assay [5] (DRD2 A2 allele carriers versus DRD2 A1 allele carriers, 400 ug per day) is “more responsive”. The “any parameter of weight change, treatment vs placebo” value in assay [5] (subjects possessing a DRD2 A1 allele) was “no significance”. Also, the weight gain result in assay [6] (CrP supplementation alone, 43 pts, 63 days) is “CrP supplementation resulted in significant weight”. Moreover, the weight loss entry in assay [6] (exercise training combined with CrP supplementation) is on record as “supplementation resulted in significant weight loss”.
